Laboratory results reported in PMC6480602, “Design, Synthesis, and Evaluation of Monoamine Oxidase A Inhibitors–Indocyanine Dyes Conjugates as Targeted Antitumor Agents” (Molecules, 2019).
pIC50: −log10 of the molar value. “Also recorded” adds a separate entry of the source. Where a name gives a salt, the structure may show the parent alone. Read-outs that look alike come from different tables or passages of the source.

Tests used:
PC-3 cells = assay: MTT cytotoxicity assay against PC-3 cells; assay type: cell-based, human; settings: for IC50: 96 h exposure, read-out: IC50 (μM), anti-proliferative activity against PC-3 cells
Procedure: The antitumor activities of G1–G13 were evaluated by MTT (3-(4,5-dimethylthiazol-2-yl)-2,5-diphenyltetrazolium bromide) assay using a human PC-3 cell line.
The in vitro cytotoxicity activity of G1–G13 were measured by the colorimetric MTT assay. Briefly, PC-3 cells were incubated in 96-well plates at a density of 3 × 10^3 cells/well for 24 h. Then, the cells were exposed to various concentrations of tested compounds, INH and DOX, respectively for 96 h. After incubation, 10 μL of MTT (5 mg/mL) solution was added and the plates were incubated for 4 h at 37 °C. Next, the medium was replaced with 200 μL of DMSO to dissolve the formed formazan crystals. The absorbance was measured at 570 nm on a microplate reader (Synergy-HT, BioTek Instruments, Winooski, VT, USA).

[1] = target: T1, Monoamine oxidase A (MAOA) (Homo sapiens, UniProt P21397); assay: MAOA inhibition activity assay in LNCaP cells (Cell MAOA Assay Kit); assay type: cell-based; settings: for MAOA inhibitory activity (in words) / IC50: LNCaP cells; for IC50: 48 h treatment, substrate p-tyramine, with MAOB inhibitor pargyline, read-out: IC50 (nM), MAOA inhibitory activity in LNCaP cells
T1 construct: the prostate cancer cell line LNCaP expressed a relatively high level of MAOA; endogenous in cells; host or cells: LNCaP cells (Cell Bank of the Chinese Academy of Sciences, Shanghai)
T1 sequence (P21397 1-527): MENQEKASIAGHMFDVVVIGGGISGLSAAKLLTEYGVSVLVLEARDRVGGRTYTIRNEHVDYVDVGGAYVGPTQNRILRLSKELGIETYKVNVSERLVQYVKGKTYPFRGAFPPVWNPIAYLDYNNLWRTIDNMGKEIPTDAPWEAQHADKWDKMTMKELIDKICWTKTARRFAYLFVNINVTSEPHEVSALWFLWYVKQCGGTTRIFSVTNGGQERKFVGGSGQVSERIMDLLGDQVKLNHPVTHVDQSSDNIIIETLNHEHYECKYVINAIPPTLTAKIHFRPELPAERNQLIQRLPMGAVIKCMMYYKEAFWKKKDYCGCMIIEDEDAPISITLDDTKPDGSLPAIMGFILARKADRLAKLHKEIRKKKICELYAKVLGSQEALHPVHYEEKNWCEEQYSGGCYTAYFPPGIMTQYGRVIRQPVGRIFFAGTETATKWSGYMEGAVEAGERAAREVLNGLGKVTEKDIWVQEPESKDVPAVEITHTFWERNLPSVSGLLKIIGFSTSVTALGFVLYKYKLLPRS
Procedure: Because the prostate cancer cell line LNCaP expressed a relatively high level of MAOA [17, 40], we tested the inhibitory effect of compounds G10, G11, and G12 on MAOA using LNCaP cells (Table 2).
In a 10-mm dish, 6 × 10^5 LNCaP cells were plated in medium supplemented with 10% FBS. […] The reaction products were extracted and MAOA activities were measured as described in the introduction for the Cell MAOA Assay Kit (Shanghai Chengong Biotechnology, CHN, Lot No: 1-201838-10). The MAOA activity was assessed based on the substrate p-tyramine level after treatment with MAOB inhibitor pargyline.

| Compound | IC50 (PC-3 cells; Homo sapiens) | also measured |
| --- | --- | --- |
| 2-(7-(5-methoxyl-1-(5-carboxypentyl)-1,3-dihydro-5-ethyl-3-methyl-2H-indol-2-ylidene)-1,3,5-heptatrien-1-yl)-5-methoxyl-1-(6-(2-isonicotinoylhydrazinyl)-6-oxohexyl)-5-ethyl-3-methyl-3H-indol-1-ium bromide [Compound G6] | – | IC50 (PC-3 cells): 37.1 µM |
| COc1ccc2c(c1)C(C)(C)C(=CC=C1CCCC(C=CC3=[N+](CCCCCC(=O)NNC(=O)c4ccncc4)c4ccc(OC)cc4C3(C)C)=C1Cl)N2CCCCCC(=O)O [Compound G1, 2-(2-(3-(2-(5-Methoxyl-1-(5-carboxypentyl)-3,3-dimethyl-indol-2-ylidene)ethylidene)-2-chloro-1-cyclohexen-1-yl)vinyl)-5-methoxyl-1-(6-(2-isonicotinoylhydrazinyl)-6-oxohexyl)-3,3-dimethyl-3H-indol-1-ium bromide] | 18.4 µM | – |
| CC1(C)C(=CC=C2CCCC(C=CC3=[N+](CCCCCC(=O)NNC(=O)c4ccncc4)c4ccc(Br)cc4C3(C)C)=C2Cl)N(CCCCCC(=O)O)c2ccc(Br)cc21 [Compound G2, 2-(2-(3-(2-(5-Bromo-1-(5-carboxypentyl)-3,3-dimethyl-indol-2-ylidene)ethylidene)-2-chloro-1-cyclohexen-1-yl)vinyl)-5-bromo-1-(6-(2-isonicotinoylhydrazinyl)-6-oxohexyl)-3,3-dimethyl-3H-indol-1-ium bromide] | 75 µM | – |
| CCC1(C)C(/C=C/C2=C(Cl)C(=C/C=C3/N(CCCCCC(=O)O)c4ccc(OC)cc4C3(C)CC)/CCC2)=[N+](CCCCCC(=O)NNC(=O)c2ccncc2)c2ccc(OC)cc21 (centres unmarked) [Compound G3, 2-(2-(3-(2-(5-Methoxyl-1-(5-carboxypentyl)-5-ethyl-3-methyl-indol-2-ylidene)ethylidene)-2-chloro-1-cyclohexen-1-yl)vinyl)-5-methoxyl-1-(6-(2-isonicotinoylhydrazinyl)-6-oxohexyl)-5-ethyl-3-methyl-3H-indol-1-ium bromide] | 13.3 µM | – |
| Cc1ccc2c(c1)C(C)(C)C(=CC=CC=CC=CC1=[N+](CCCCCC(=O)NNC(=O)c3ccncc3)c3ccc(C)cc3C1(C)C)N2CCCCCC(=O)O [Compound G4, 2-(7-(1-(5-carboxypentyl)-1,3-dihydro-3,3,5-trimethyl-2H-indol-2-ylidene)-1,3,5-heptatrien-1-yl)-1-(6-(2-isonicotinoylhydrazinyl)-6-oxohexyl)-3,3,5-trimethyl-3H-indol-1-ium bromide] | 46.7 µM | – |
| COc1ccc2c(c1)C(C)(C)C(=CC=CC=CC=CC1=[N+](CCCCCC(=O)NNC(=O)c3ccncc3)c3ccc(OC)cc3C1(C)C)N2CCCCCC(=O)O [Compound G5, 2-(7-(5-methoxyl-1-(5-carboxypentyl)-1,3-dihydro-3,3-dimethyl-2H-indol-2-ylidene)-1,3,5-heptatrien-1-yl)-5-methoxyl-1-(6-(2-isonicotinoylhydrazinyl)-6-oxohexyl)-3,3-dimethyl-3H-indol-1-ium bromide] | 5.06 µM | – |
| COc1ccc2c(c1)C(C)(C)\C(=C/C=C/C=C/C=C/C1=[N+](CCCCCC(=O)NNC(=O)c3ccncc3)c3ccc(C)cc3C1(C)C)N2CCCCS(=O)(=O)[O-] [Compound G7, 3H-Indolium,2-(7-(5-methoxy-1-(4-sulfonatobutyl)-3,3-dimethyl-2H-indolin-2-ylidene)-1,3,5-heptatrien-1-yl)-1-(6-(2-isonicotinoylhydrazinyl)-6-oxohexyl)-1,3-dihydro-3,3,5-trimethyl-, inner salt] | 28.6 µM | – |
| COc1ccc2c(c1)C(C)(C)C(/C=C/C=C/C=C/C=C1/N(CCCCS(=O)(=O)[O-])c3ccc(OC)cc3C1(C)C)=[N+]2CCCCCC(=O)NNC(=O)c1ccncc1 [Compound G8, 3H-Indolium,2-(7-(5-methoxy-1-(4-sulfonatobutyl)-3,3-dimethyl-2H-indolin-2-ylidene)-1,3,5-heptatrien-1-yl)-5-methoxy-1-(6-(2-isonicotinoylhydrazinyl)-6-oxohexyl)-1,3-dihydro-3,3-dimethyl-, inner salt] | 102 µM | – |
| COc1ccc2c(c1)C(C)(C)\C(=C/C=C/C=C/C=C/C1=[N+](CCCCCC(=O)NNC(=O)c3ccncc3)c3ccccc3C1(C)C)N2CCCCS(=O)(=O)[O-] [Compound G9, 3H-Indolium,2-(7-(5-methoxy-1-(4-sulfonatobutyl)-3,3-dimethyl-2H-indolin-2-ylidene)-1,3,5-heptatrien-1-yl)-1-(6-(2-isonicotinoylhydrazinyl)-6-oxohexyl)-1,3-dihydro-3,3-dimethyl-, inner salt] | 90.5 µM | – |
| CCCCN1/C(=C/C=C/C=C/C=C/C2=[N+](CCCC(=O)NNC(=O)c3ccncc3)c3ccc(C)cc3C2(C)C)C(C)(C)c2cc(OC)ccc21 [Compound G10, 2-(7-(5-Methoxy-1-butyl-3,3,5-trimethyl-2H-indolin-2-ylidene)-1,3,5-heptatrien-1-yl)-1-(6-(2-isonicotinoylhydrazinyl)-4-oxobutyl)-1,3-dihydro-3,3-dimethyl-3H-indolium bromide] | 0.85 µM | MAOA inhibitory activity (in words) [1]: moderate MAOA inhibitory activities; IC50 [1]: 221 nM |
| CCCCN1/C(=C/C=C/C=C/C=C/C2=[N+](CCCCCC(=O)NNC(=O)c3ccncc3)c3ccc(C)cc3C2(C)C)C(C)(C)c2cc(OC)ccc21 [Compound G11] | 0.4 µM | MAOA inhibitory activity (in words) [1]: moderate MAOA inhibitory activities; IC50 [1]: 469 nM |
| CCCCN1/C(=C/C=C/C=C/C=C/C2=[N+](CCCCCC(=O)NNC(=O)c3ccncc3)c3ccc(Br)cc3C2(C)C)C(C)(C)c2cc(OC)ccc21 [Compound G12] | 1.55 µM | MAOA inhibitory activity (in words) [1]: moderate MAOA inhibitory activities; IC50 [1]: 661 nM |
| CC1(C)C(/C=C/C=C/C=C/C=C2/N(CCCCCC(=O)NNC(=O)c3ccncc3)c3ccc4ccccc4c3C2(C)C)=[N+](CCCCS(=O)(=O)[O-])c2ccc3ccccc3c21 [Compound G13, 1H-Benz[e]indolium,2-(7-(3,3-dimethyl-1-(4-sulfonatobutyl)benz(e)indolin-2-ylidene)hepta-1,3,5-trien-1-yl)-1-(6-(2-isonicotinoylhydrazinyl)-6-oxohexyl)-1,3-dihydro-3,3-dimethyl-, inner salt] | 10.5 µM | – |
| COc1cccc2c1C(=O)c1c(O)c3c(c(O)c1C2=O)C[C@@](O)(C(=O)CO)C[C@@H]3O[C@H]1C[C@H](N)[C@H](O)[C@H](C)O1 [DOX, doxorubicin, reference compound] | 0.21 µM | – |
| NNC(=O)c1ccncc1 [INH, isoniazid, reference compound] | > 200 µM | cytotoxicity / antitumor activity against PC-3 cells (in words) (PC-3 cells): negligible cytotoxicity; also recorded: negligible in vitro antitumor activity; pIC50 [1]: < 6.00 |
